Results reported in patent US10912780B2, “Heterocyclic compounds useful as anti-bacterial agents and method for production thereof” (Bugworks Research, Inc., priority 2017, dated 2021).
≈ marks a conversion by molar mass, not a printed value.

Key:
[1] = system: Acinetobacter baumannii ATCC 19606; experiment: Minimum Inhibitory Concentration (MIC) in LB media; format: cell-based; conditions: for MIC: Acinetobacter baumannii, ATCC19606;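 on all read-outs here: twofold compound dilutions from DMSO stocks in LB broth microplates, overnight incubation at 37 °C, growth read by absorbance at 600 nm, with DMSO and sterility controls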
Protocol: Bacterial cultures that are stored as glycerol stocks at −80° C. are sub cultured on LB agar plates to obtain isolated colonies. A single colony of each strain is cultured in LB broth. […] Test compounds are dissolved in dimethyl sulfoxide (DMSO) to a stock concentration of 4 mg/ml. A twofold dilution series of this DMSO stock is prepared in a 96 well V bottom microtitre plate from rows A to H. A 3 μL volume of these dilutions are transferred to a 96-well flat bottom microtitre assay plate. Controls to monitor the effects of DMSO and media sterility are included. Each well is inoculated with 150 μL of the above diluted culture. The plates are incubated at 37° C. overnight in a humidified incubator. The following morning, the plates are read using a Spectrophotometer at 600 nm wavelength.

[2] = system: Enterococcus faecalis ATCC 29212; experiment: Minimum Inhibitory Concentration (MIC) in LB media; format: cell-based; conditions: for MIC: Enterococcus faecalis, ATCC29212, read-out: Minimum Inhibitory Concentration E. faecalis ATCC 29212
Text: (§1) The compounds of Formula (I) are of interest due to their potent antibacterial effects. The ability of the invention compounds disclosed herein to achieve an antibacterial effect may be evaluated with regard to their ability to inhibit the growth of bacterial species like Escherichia coli ATCC 25922, Staphylococcus aureus ATCC 29213, Klebsiella pneumoniae ATCC 13883, Acinetobacter baumannii ATCC 19606, Pseudomonas aeruginosa ATCC 27853, Enterococcus faecalis ATCC 29212 and Enterococcus faecalis ATCC 29212 using an assay based on the following Minimum Inhibitory Concentration (MIC) protocol:
(§2) The medium sterility is checked by incubating at 37° C. for a period of 48 h.
(§3) Bacterial cultures that are stored as glycerol stocks at −80° C. are sub cultured on LB agar plates to obtain isolated colonies. A single colony of each strain is cultured in LB broth. The cultures are incubated at 37 C, 200 rpm till they reach an optical density (OD at 600 nm) of 0.8 to 1. […] Test compounds are dissolved in dimethyl sulfoxide (DMSO) to a stock concentration of 4 mg/ml. A twofold dilution series of this DMSO stock is prepared in a 96 well V bottom microtitre plate from rows A to H. A 3 μL volume of these dilutions are transferred to a 96-well flat bottom microtitre assay plate. Controls to monitor the effects of DMSO and media sterility are included. Each well is inoculated with 150 μL of the above diluted culture. The plates are incubated at 37° C. overnight in a humidified incubator. The following morning, the plates are read using a Spectrophotometer at 600 nm wavelength. […] The antibacterial activity (MIC) determined against representative Gram positive (S. aureus, E. faecalis) and Gram negative (E.coli, -P. aeruginosa and A. baumannii) pathogen were reported Table 1.

[3] = system: Staphylococcus aureus ATCC 29213; experiment: Minimum Inhibitory Concentration (MIC) in LB media; format: cell-based; conditions: for MIC: Staphylococcus aureus, ATCC29213, read-out: Minimum Inhibitory Concentration S. aureus ATCC 29213
Text: as §1, §2, §3

[4] = system: Pseudomonas aeruginosa ATCC 27853; experiment: Minimum Inhibitory Concentration (MIC) in LB media; format: cell-based; conditions: for MIC: Pseudomonas aeruginosa, ATCC27853, read-out: Minimum Inhibitory Concentration P. aeruginosa ATCC 27853
Text: as §1, §2, §3

[5] = system: Klebsiella pneumoniae ATCC 13883; experiment: Minimum Inhibitory Concentration (MIC) in LB media; format: cell-based; conditions: for MIC: Klebsiella pneumoniae, ATCC13883, read-out: Minimum Inhibitory Concentration K. pneumoniae ATCC 13883
Text: as §1, §2, §3

[6] = system: Escherichia coli ATCC 25922; experiment: Minimum Inhibitory Concentration (MIC) in LB media; format: cell-based; conditions: for MIC: Escherichia coli, ATCC25922, read-out: Minimum Inhibitory Concentration E. coli ATCC 25922
Text: as §1, §2, §3

E. coli topoisomerase IV = E. coli topoisomerase IV (Escherichia coli, UniProt P0AFI2+P20083); experiment: biochemical; conditions: decatenation assay; read-out: E. coli Topo IV IC50
E. coli DNA gyrase = E. coli DNA gyrase (Escherichia coli, UniProt P0AES4+P0AES6); experiment: biochemical; conditions: supercoiling assay
Chain of E. coli DNA gyrase (P0AES4 whole entry, one chain of several): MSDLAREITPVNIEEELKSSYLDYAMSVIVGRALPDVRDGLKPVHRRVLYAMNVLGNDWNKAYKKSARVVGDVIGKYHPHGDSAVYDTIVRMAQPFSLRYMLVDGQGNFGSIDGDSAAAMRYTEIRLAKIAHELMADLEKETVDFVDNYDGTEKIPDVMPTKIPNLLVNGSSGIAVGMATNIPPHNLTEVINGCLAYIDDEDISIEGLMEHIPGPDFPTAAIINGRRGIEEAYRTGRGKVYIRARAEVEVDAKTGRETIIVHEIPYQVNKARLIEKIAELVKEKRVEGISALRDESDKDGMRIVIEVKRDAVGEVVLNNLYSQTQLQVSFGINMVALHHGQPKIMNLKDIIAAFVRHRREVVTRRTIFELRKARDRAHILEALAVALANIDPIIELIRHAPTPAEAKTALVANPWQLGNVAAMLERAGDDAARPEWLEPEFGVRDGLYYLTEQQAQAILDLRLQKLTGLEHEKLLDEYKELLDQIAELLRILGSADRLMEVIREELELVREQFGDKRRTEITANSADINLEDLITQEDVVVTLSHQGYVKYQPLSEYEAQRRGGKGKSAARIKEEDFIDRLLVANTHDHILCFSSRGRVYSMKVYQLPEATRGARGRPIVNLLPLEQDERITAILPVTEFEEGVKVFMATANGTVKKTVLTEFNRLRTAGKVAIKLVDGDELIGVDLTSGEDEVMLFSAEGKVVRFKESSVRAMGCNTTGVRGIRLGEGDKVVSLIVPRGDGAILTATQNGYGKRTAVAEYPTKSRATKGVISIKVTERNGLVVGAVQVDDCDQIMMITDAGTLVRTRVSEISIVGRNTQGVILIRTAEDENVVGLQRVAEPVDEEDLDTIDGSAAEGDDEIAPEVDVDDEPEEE

Chain of E. coli topoisomerase IV (P20083 whole entry): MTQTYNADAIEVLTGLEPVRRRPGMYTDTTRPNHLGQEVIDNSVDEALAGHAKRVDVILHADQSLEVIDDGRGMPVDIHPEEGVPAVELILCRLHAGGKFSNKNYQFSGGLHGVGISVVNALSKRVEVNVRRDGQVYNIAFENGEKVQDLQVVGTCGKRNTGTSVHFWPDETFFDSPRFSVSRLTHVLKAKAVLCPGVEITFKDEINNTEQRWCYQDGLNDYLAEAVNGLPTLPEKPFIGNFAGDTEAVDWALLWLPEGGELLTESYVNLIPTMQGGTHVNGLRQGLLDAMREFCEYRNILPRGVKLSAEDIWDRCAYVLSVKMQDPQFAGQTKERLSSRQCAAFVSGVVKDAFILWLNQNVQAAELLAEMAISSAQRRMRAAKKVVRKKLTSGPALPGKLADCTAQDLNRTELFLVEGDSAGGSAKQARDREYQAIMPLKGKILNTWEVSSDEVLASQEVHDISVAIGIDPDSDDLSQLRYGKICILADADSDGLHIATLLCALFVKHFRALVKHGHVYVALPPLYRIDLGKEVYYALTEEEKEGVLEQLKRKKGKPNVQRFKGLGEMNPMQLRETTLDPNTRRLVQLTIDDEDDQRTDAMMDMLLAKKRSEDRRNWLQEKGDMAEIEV
Chain of E. coli topoisomerase IV (P0AFI2 whole entry): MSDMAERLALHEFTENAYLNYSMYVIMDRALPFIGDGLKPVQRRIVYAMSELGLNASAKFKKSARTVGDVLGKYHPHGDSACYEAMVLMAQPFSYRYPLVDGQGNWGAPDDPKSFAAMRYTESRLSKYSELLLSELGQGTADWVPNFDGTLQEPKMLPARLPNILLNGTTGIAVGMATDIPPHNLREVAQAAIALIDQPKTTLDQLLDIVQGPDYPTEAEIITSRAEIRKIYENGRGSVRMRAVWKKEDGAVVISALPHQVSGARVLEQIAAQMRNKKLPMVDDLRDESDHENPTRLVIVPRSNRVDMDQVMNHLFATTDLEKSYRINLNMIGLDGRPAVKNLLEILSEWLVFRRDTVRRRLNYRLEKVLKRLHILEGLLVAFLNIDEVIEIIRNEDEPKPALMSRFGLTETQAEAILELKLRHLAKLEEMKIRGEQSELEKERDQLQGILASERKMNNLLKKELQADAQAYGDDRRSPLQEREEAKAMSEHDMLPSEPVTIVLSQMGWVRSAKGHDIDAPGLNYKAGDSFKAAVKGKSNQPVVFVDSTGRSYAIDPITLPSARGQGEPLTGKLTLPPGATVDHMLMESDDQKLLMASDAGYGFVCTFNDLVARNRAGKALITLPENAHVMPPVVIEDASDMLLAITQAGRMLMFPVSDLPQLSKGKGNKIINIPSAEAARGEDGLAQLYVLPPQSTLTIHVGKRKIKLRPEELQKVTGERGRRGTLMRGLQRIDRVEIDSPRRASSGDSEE

Row | Compound | MIC [1] [µg/mL] | MIC [2] [µg/mL] | MIC [3] [µg/mL] | MIC [4] [µg/mL] | MIC [5] [µg/mL] | MIC [6] [µg/mL] | Minimum Inhibitory Concentration A. baumannii ATCC 19606 [1] [µg/mL] | Minimum Inhibitory Concentration E. faecalis ATCC 29212 [2] [µg/mL] | Minimum Inhibitory Concentration S. aureus ATCC 29213 [3] [µg/mL] | Minimum Inhibitory Concentration P. aeruginosa ATCC 27853 [4] [µg/mL] | Minimum Inhibitory Concentration K. pneumoniae ATCC 13883 [5] [µg/mL] | Minimum Inhibitory Concentration E. coli ATCC 25922 [6] [µg/mL] | IC50 (E. coli topoisomerase IV) [nM] | IC50 (E. coli DNA gyrase) [nM]
1 | Cn1c(=O)ccc2ncc(F)c(CCCNCC3CN(c4ccc5c(n4)NC(=O)CO5)C(=O)O3)c21 (racemic) [Example 1, 6-(5-(((3-(3-fluoro-5-methyl-6-oxo-5,6-dihydro-1,5-naphthyridin-4-yl)propyl)amino)methyl)-2-oxooxazolidin-3-yl)-2H-pyrido[3,2-b][1,4]oxazin-3(4H)-one] | < 0.5 | < 4 | < 4 | < 16 | < 1 | < 0.5 | – | – | – | – | – | – | – | –
2 | Cn1c(=O)ccc2ccc(F)c(C[C@@H](O)CNC[C@H]3CN(c4ccc5c(n4)NC(=O)CO5)C(=O)O3)c21 (single isomer, unassigned) [Example 19] | 1 (≈ 2.01 µM) | 0.5 (≈ 1.01 µM) | 0.25 (≈ 0.503 µM) | 2 (≈ 4.02 µM) | 0.125 (≈ 0.251 µM) | 0.25 (≈ 0.503 µM) | – | – | – | – | – | – | – | –
3 | Cn1c(=O)ccc2ncc(F)c(CCCNCC3CN(c4ccc5c(n4)NC(=O)CO5)C(=O)O3)c21 (stereo not drawn) [Example 1b, Chiral 6-(5-(((3-(3-fluoro-5-methyl-6-oxo-5,6-dihydro-1,5-naphthyridin-4-yl)propyl)amino)methyl)-2-oxooxazolidin-3-yl)-2H-pyrido[3,2-b][1,4]oxazin-3(4H)-one] | – | – | – | – | – | – | <0.5 | <4 | <4 | <16 | <1 | <0.5 | – | –
4 | CN1C(=O)CCc2ccc(F)c(CCNC[C@H]3CN(c4ccc5c(n4)NC(=O)CO5)C(=O)O3)c21 [Example 2, (S)-6-(5-(((2-(7-fluoro-1-methyl-2-oxo-1,2,3,4-tetrahydroquinolin-8-yl)ethyl)amino)methyl)-2-oxooxazolidin-3-yl)-2H-pyrido[3,2-b][1,4]oxazin-3(4H)-one] | 0.125 (≈ 0.266 µM) | 1 (≈ 2.13 µM) | 0.125 (≈ 0.266 µM) | 4 (≈ 8.52 µM) | 0.25 (≈ 0.533 µM) | 0.125 (≈ 0.266 µM) | – | – | – | – | – | – | – | –
5 | Cn1c(=O)cnc2ccc(F)c(CCNC[C@H]3CN(c4ccc5c(n4)NC(=O)CO5)C(=O)O3)c21 [Example 4, (S)-6-(5-(((2-(6-fluoro-4-methyl-3-oxo-3,4-dihydroquinoxalin-5-yl)ethyl)amino)methyl)-2-oxooxazolidin-3-yl)-2H-pyrido[3,2-b][1,4]oxazin-3(4H)-one] | ≤ 0.015 | 0.06 (≈ 0.128 µM) | ≤ 0.015 | 0.25 (≈ 0.534 µM) | 0.03 (≈ 0.064 µM) | 0.03 (≈ 0.064 µM) | – | – | – | – | – | – | 93 | 7
6 | Cc1nc2ccc(F)c(CCNC[C@H]3CN(c4ccc5c(n4)NC(=O)CO5)C(=O)O3)c2n(C)c1=O [Example 6, (S)-6-(5-(((2-(6-fluoro-2,4-dimethyl-3-oxo-3,4-dihydroquinoxalin-5-yl)ethyl)amino)methyl)-2-oxooxazolidin-3-yl)-2H-pyrido[3,2-b][1,4]oxazin-3(4H)-one] | 0.015 (≈ 0.0311 µM) | 0.125 (≈ 0.259 µM) | 0.015 (≈ 0.0311 µM) | 1 (≈ 2.07 µM) | 0.125 (≈ 0.259 µM) | 0.06 (≈ 0.124 µM) | – | – | – | – | – | – | 30 | 3.4
7 | Cc1nc2ccc(F)c(CCNC[C@@H]3CN(c4ccc5c(n4)NC(=O)CO5)C(=O)O3)c2n(C)c1=O [Example 7, (R)-6-(5-(((2-(6-fluoro-2,4-dimethyl-3-oxo-3,4-dihydroquinoxalin-5-yl)ethyl)amino)methyl)-2-oxooxazolidin-3-yl)-2H-pyrido[3,2-b][1,4]oxazin-3(4H)-one] | 0.06 (≈ 0.124 µM) | 0.25 (≈ 0.518 µM) | 0.06 (≈ 0.124 µM) | 2 (≈ 4.15 µM) | 0.25 (≈ 0.518 µM) | 0.125 (≈ 0.259 µM) | – | – | – | – | – | – | – | –
8 | CS(=O)(=O)CCn1c(=O)ccc2ccc(F)c(CCNC[C@H]3CN(c4ccc5c(n4)NC(=O)CO5)C(=O)O3)c21 [Example 11, (S)-6-(5-(((2-(7-fluoro-1-(2-(methylsulfonyl)ethyl)-2-oxo-1,2-dihydroquinolin-8-yl)ethyl)amino)methyl)-2-oxooxazolidin-3-yl)-2H-pyrido[3,2-b][1,4]oxazin-3(4H)-one] | 0.5 (≈ 0.894 µM) | 0.5 (≈ 0.894 µM) | 0.03 (≈ 0.0536 µM) | 2 (≈ 3.57 µM) | 0.25 (≈ 0.447 µM) | 0.25 (≈ 0.447 µM) | – | – | – | – | – | – | – | –
